From the kinase profiling compilation of Christmann-Franck et al. (2016)

Assays:
Assay in all cases: radiometric filter-binding kinase assay
BRSK2 (human) = BRSK2 (human) (UniProt Q8IWQ3)
MARK3 (human) = MARK3 (human) (UniProt P27448)
EEF2K (human) = EEF2K (human) (UniProt O00418)
MARK4 (human) = MARK4 (human) (UniProt Q96L34)
HIPK1 (human) = HIPK1 (human) (UniProt Q86Z02)
PRKCA (human) = PRKCA (human) (UniProt P17252)
PLK1 (human) = PLK1 (human) (UniProt P53350)
MAPK1 (human) = MAPK1 (human) (UniProt P28482)
RPS6KA3 KD1 KD2 (human) = RPS6KA3 KD1 KD2 (human) (UniProt P51812)
PAK6 (human) = PAK6 (human) (UniProt Q9NQU5)
MST4 (human) = MST4 (human) (UniProt Q9P289)
MAPK3 (human) = MAPK3 (human) (UniProt P27361)
CLK2 (human) = CLK2 (human) (UniProt P49760)
Chain of CLK2 (human) (P49760 whole entry, looked up): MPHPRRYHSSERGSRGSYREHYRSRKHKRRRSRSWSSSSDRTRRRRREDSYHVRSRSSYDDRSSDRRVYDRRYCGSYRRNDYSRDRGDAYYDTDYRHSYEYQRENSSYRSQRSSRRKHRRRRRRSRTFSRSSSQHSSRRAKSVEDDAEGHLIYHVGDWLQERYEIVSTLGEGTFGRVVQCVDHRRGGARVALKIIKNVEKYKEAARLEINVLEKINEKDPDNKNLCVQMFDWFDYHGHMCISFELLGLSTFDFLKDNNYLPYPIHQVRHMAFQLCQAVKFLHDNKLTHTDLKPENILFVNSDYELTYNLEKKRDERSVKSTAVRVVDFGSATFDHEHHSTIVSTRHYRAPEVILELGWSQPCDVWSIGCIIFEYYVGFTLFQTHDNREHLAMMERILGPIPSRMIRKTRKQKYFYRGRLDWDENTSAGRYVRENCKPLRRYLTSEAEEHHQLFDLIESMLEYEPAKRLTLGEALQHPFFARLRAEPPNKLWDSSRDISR

DAPK1 (human) = DAPK1 (human) (UniProt P53355)
HIPK3 (human) = HIPK3 (human) (UniProt Q9H422)
SRC (human) = SRC (human) (UniProt P12931)
[1] = system: SGK1 (human), O00141 [S422D]
RPS6KA1 KD1 KD2 (human) = RPS6KA1 KD1 KD2 (human) (UniProt Q15418)
CHEK2 (human) = CHEK2 (human) (UniProt O96017)
PRKCZ (human) = PRKCZ (human) (UniProt Q05513)
NUAK1 (human) = NUAK1 (human) (UniProt O60285)
Chain of NUAK1 (human) (O60285 whole entry, looked up): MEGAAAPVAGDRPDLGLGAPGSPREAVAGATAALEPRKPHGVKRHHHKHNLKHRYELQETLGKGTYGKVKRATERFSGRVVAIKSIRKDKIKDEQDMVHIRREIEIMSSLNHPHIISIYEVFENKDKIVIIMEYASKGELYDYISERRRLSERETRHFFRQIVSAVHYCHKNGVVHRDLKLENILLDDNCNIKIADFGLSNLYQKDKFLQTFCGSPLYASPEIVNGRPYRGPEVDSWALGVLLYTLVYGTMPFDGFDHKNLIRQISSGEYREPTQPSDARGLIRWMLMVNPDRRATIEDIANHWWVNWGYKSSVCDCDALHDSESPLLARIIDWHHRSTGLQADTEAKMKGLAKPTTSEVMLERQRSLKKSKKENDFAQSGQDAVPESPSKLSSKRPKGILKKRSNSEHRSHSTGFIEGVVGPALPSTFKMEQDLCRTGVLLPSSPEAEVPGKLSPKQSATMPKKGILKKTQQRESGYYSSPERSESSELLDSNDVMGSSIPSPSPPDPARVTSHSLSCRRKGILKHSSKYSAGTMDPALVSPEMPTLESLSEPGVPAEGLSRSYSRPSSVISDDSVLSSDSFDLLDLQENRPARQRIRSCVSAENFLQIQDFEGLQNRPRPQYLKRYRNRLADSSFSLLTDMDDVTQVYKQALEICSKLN

TAOK1 (human) = TAOK1 (human) (UniProt Q7L7X3)
MAP3K1 (human) = MAP3K1 (human) (UniProt Q13233)
Chain of MAP3K1 (human) (Q13233 whole entry, looked up): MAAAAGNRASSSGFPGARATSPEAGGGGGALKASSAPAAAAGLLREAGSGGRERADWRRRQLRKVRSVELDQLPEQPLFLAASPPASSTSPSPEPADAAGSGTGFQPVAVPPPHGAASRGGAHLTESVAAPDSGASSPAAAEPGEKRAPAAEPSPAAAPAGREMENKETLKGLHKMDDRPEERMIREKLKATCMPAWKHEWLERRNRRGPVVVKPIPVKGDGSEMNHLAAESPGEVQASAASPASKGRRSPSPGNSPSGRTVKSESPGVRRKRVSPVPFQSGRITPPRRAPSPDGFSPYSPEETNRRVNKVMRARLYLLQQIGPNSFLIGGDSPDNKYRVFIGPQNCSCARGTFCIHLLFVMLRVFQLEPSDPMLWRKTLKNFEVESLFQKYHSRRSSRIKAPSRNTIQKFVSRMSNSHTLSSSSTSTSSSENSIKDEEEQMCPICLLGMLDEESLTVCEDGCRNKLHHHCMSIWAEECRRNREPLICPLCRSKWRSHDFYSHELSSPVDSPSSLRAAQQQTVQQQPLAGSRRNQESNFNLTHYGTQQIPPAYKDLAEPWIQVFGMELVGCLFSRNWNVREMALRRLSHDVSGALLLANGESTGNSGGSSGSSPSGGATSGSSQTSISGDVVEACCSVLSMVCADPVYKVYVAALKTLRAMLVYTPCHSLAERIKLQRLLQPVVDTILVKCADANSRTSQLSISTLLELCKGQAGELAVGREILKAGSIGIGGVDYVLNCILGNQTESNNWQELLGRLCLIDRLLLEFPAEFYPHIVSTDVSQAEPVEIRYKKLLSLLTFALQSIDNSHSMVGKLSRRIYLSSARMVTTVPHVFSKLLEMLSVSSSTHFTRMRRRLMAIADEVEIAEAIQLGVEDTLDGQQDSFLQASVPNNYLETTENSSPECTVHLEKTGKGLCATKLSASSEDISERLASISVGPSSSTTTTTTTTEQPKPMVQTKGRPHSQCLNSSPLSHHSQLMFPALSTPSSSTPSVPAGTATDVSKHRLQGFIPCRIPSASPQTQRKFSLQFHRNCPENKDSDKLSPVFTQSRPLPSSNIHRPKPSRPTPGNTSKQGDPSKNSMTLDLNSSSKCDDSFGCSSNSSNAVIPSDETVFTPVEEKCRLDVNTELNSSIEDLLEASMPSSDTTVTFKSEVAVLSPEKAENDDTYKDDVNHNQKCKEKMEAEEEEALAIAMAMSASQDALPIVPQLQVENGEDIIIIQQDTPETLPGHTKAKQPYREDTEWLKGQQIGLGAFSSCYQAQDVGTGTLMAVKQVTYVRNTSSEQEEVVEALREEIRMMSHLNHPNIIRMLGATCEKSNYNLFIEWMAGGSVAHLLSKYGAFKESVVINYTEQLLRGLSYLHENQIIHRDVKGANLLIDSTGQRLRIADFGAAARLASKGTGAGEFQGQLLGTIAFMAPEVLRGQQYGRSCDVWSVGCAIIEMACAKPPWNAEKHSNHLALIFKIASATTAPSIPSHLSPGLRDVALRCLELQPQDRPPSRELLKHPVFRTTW

STK3 (human) = STK3 (human) (UniProt Q13188)
JAK2 JH1 JH2 (human) = JAK2 JH1 JH2 (human) (UniProt O60674)
CDK2 CCNA2 (human) = CDK2 CCNA2 (human) (UniProt P20248+P24941)
ERBB4 (human) = ERBB4 (human) (UniProt Q15303)
NTRK1 (human) = NTRK1 (human) (UniProt P04629)
RPS6KA5 KD1 KD2 (human) = RPS6KA5 KD1 KD2 (human) (UniProt O75582)
AURKA (human) = AURKA (human) (UniProt O14965)
FLT1 (human) = FLT1 (human) (UniProt P17948)
Chain of FLT1 (human) (P17948 whole entry, looked up): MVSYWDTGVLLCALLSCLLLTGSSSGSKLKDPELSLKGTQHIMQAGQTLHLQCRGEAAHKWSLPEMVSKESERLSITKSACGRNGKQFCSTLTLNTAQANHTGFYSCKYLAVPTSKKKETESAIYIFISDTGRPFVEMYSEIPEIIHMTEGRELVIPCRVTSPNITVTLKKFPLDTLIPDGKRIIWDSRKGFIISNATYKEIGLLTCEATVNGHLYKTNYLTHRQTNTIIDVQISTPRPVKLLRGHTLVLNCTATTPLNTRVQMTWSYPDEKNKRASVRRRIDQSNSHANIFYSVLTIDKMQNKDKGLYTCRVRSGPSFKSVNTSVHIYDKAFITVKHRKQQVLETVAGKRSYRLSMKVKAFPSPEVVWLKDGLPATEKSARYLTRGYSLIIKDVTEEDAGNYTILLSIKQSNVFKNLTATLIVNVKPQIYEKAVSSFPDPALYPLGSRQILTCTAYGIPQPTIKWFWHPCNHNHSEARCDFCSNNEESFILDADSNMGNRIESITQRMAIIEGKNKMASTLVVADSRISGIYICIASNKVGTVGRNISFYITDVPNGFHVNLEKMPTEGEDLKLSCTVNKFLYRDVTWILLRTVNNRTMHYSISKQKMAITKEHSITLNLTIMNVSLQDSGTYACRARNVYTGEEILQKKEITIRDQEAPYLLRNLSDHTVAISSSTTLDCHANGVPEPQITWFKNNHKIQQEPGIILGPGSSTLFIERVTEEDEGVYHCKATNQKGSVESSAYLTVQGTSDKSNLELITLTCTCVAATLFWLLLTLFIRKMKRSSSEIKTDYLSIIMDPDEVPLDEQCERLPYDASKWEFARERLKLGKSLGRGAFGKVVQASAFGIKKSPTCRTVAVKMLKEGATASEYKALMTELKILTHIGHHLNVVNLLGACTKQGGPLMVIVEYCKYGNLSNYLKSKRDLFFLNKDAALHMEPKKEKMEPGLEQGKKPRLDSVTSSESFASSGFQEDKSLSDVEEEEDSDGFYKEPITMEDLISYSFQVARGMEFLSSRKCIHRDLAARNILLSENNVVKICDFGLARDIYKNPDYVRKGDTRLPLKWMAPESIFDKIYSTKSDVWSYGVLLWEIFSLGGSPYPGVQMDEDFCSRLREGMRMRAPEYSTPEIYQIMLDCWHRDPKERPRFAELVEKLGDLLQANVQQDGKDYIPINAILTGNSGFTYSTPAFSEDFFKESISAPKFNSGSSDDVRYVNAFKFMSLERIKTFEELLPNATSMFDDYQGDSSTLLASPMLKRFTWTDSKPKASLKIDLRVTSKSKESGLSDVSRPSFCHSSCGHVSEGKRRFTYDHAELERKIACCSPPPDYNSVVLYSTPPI

GCK (human) = GCK (human) (UniProt Q12851)
MAP3K5 (human) = MAP3K5 (human) (UniProt Q99683)
CHEK1 (human) = CHEK1 (human) (UniProt O14757)
EPHB4 (human) = EPHB4 (human) (UniProt P54760)
Chain of EPHB4 (human) (P54760 whole entry, looked up): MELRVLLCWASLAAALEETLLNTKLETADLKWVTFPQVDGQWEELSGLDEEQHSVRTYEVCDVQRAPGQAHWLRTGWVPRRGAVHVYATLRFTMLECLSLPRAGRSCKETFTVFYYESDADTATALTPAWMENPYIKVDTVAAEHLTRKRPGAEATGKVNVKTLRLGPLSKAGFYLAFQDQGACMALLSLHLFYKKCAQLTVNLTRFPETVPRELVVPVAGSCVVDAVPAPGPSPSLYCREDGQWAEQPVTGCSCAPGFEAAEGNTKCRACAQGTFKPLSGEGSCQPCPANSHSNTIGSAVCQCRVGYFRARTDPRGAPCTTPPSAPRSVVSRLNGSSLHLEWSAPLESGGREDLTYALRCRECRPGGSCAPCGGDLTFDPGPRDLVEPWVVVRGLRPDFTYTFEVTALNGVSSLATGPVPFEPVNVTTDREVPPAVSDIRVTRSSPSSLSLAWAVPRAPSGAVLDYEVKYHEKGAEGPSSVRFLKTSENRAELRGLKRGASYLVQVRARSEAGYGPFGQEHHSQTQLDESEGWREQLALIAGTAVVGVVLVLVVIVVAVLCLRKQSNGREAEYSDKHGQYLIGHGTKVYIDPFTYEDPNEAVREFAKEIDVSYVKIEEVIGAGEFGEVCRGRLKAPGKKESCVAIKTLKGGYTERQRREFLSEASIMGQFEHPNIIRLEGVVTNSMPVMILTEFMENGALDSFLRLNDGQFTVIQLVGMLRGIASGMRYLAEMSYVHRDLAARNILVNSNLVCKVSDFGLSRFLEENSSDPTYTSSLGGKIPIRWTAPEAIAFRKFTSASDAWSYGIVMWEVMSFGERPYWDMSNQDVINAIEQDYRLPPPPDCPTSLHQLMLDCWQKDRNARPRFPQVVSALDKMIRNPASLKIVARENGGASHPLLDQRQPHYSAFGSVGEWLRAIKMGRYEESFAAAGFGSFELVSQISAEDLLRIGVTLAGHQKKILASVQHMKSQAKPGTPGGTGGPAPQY

Q: With `NC(=O)c1ccc(-c2ccc(Oc3cncc4sc(-c5nn[nH]n5)cc34)cc2)cc1` as the compound, how does the residual activity (BRSK2 (human); compound 1.0 µM) read?
A: 92%

Q: And the residual activity (BRSK2 (human); compound 10.0 µM)?
A: 95%

Q: And the residual activity (MARK3 (human); compound 1.0 µM)?
A: 94%

Q: And the residual activity (MARK3 (human); compound 10.0 µM)?
A: 71%

Q: And the residual activity (EEF2K (human); compound 1.0 µM)?
A: 100%

Q: What about the residual activity (EEF2K (human); compound 10.0 µM) of the same compound?
A: 101%

Q: And the residual activity (MARK4 (human); compound 1.0 µM)?
A: 86%

Q: And the residual activity (MARK4 (human); compound 10.0 µM)?
A: 78%

Q: What about the residual activity (HIPK1 (human); compound 1.0 µM) of the same compound?
A: 104%

Q: And the residual activity (HIPK1 (human); compound 10.0 µM)?
A: 9%

Q: What about the residual activity (PRKCA (human); compound 1.0 µM) of the same compound?
A: 76%

Q: And the residual activity (PRKCA (human); compound 10.0 µM)?
A: 30%

Q: And the residual activity (PLK1 (human); compound 1.0 µM)?
A: 90%

Q: What about the residual activity (PLK1 (human); compound 10.0 µM) of the same compound?
A: 24%

Q: And the residual activity (MAPK1 (human); compound 1.0 µM)?
A: 96%

Q: And the residual activity (MAPK1 (human); compound 10.0 µM)?
A: 96%

Q: What about the residual activity (RPS6KA3 KD1 KD2 (human); compound 1.0 µM) of the same compound?
A: 77%

Q: And the residual activity (RPS6KA3 KD1 KD2 (human); compound 10.0 µM)?
A: 44%

Q: And the residual activity (PAK6 (human); compound 1.0 µM)?
A: 89%

Q: What about the residual activity (PAK6 (human); compound 10.0 µM) of the same compound?
A: 87%

Q: And the residual activity (MST4 (human); compound 1.0 µM)?
A: 93%

Q: What about the residual activity (MST4 (human); compound 10.0 µM) of the same compound?
A: 61%

Q: And the residual activity (MAPK3 (human); compound 1.0 µM)?
A: 97%

Q: What about the residual activity (MAPK3 (human); compound 10.0 µM) of the same compound?
A: 78%

Q: What about the residual activity (CLK2 (human); compound 1.0 µM) of the same compound?
A: 80%

Q: What about the residual activity (CLK2 (human); compound 10.0 µM) of the same compound?
A: 12%

Q: And the residual activity (DAPK1 (human); compound 1.0 µM)?
A: 88%

Q: What about the residual activity (DAPK1 (human); compound 10.0 µM) of the same compound?
A: 18%

Q: What about the residual activity (HIPK3 (human); compound 1.0 µM) of the same compound?
A: 96%

Q: And the residual activity (HIPK3 (human); compound 10.0 µM)?
A: 10%

Q: What about the residual activity (SRC (human); compound 1.0 µM) of the same compound?
A: 85%

Q: And the residual activity (SRC (human); compound 10.0 µM)?
A: 92%

Q: And the residual activity ([1]; compound 1.0 µM)?
A: 100%

Q: What about the residual activity ([1]; compound 10.0 µM) of the same compound?
A: 68%

Q: What about the residual activity (RPS6KA1 KD1 KD2 (human); compound 1.0 µM) of the same compound?
A: 88%

Q: And the residual activity (RPS6KA1 KD1 KD2 (human); compound 10.0 µM)?
A: 33%

Q: And the residual activity (CHEK2 (human); compound 1.0 µM)?
A: 97%

Q: And the residual activity (CHEK2 (human); compound 10.0 µM)?
A: 59%

Q: And the residual activity (PRKCZ (human); compound 1.0 µM)?
A: 100%

Q: And the residual activity (PRKCZ (human); compound 10.0 µM)?
A: 67%

Q: What about the residual activity (NUAK1 (human); compound 1.0 µM) of the same compound?
A: 92%

Q: And the residual activity (NUAK1 (human); compound 10.0 µM)?
A: 78%

Q: And the residual activity (TAOK1 (human); compound 1.0 µM)?
A: 82%

Q: And the residual activity (TAOK1 (human); compound 10.0 µM)?
A: 36%

Q: And the residual activity (MAP3K1 (human); compound 1.0 µM)?
A: 99%

Q: What about the residual activity (MAP3K1 (human); compound 10.0 µM) of the same compound?
A: 51%

Q: And the residual activity (STK3 (human); compound 1.0 µM)?
A: 98%

Q: What about the residual activity (STK3 (human); compound 10.0 µM) of the same compound?
A: 75%

Q: What about the residual activity (JAK2 JH1 JH2 (human); compound 1.0 µM) of the same compound?
A: 97%

Q: And the residual activity (JAK2 JH1 JH2 (human); compound 10.0 µM)?
A: 74%

Q: And the residual activity (CDK2 CCNA2 (human); compound 1.0 µM)?
A: 91%

Q: And the residual activity (CDK2 CCNA2 (human); compound 10.0 µM)?
A: 105%

Q: What about the residual activity (ERBB4 (human); compound 1.0 µM) of the same compound?
A: 88%

Q: What about the residual activity (ERBB4 (human); compound 10.0 µM) of the same compound?
A: 73%

Q: What about the residual activity (NTRK1 (human); compound 1.0 µM) of the same compound?
A: 83%

Q: And the residual activity (NTRK1 (human); compound 10.0 µM)?
A: 89%

Q: And the residual activity (RPS6KA5 KD1 KD2 (human); compound 1.0 µM)?
A: 90%

Q: What about the residual activity (RPS6KA5 KD1 KD2 (human); compound 10.0 µM) of the same compound?
A: 20%

Q: What about the residual activity (AURKA (human); compound 1.0 µM) of the same compound?
A: 103%

Q: And the residual activity (AURKA (human); compound 10.0 µM)?
A: 78%

Q: What about the residual activity (FLT1 (human); compound 1.0 µM) of the same compound?
A: 84%

Q: What about the residual activity (FLT1 (human); compound 10.0 µM) of the same compound?
A: 24%

Q: What about the residual activity (GCK (human); compound 1.0 µM) of the same compound?
A: 78%

Q: And the residual activity (GCK (human); compound 10.0 µM)?
A: 13%

Q: And the residual activity (MAP3K5 (human); compound 1.0 µM)?
A: 104%

Q: And the residual activity (MAP3K5 (human); compound 10.0 µM)?
A: 112%

Q: What about the residual activity (CHEK1 (human); compound 1.0 µM) of the same compound?
A: 79%

Q: And the residual activity (CHEK1 (human); compound 10.0 µM)?
A: 87%

Q: And the residual activity (EPHB4 (human); compound 1.0 µM)?
A: 97%

Q: And the residual activity (EPHB4 (human); compound 10.0 µM)?
A: 96%
